Values after ≈ are worked out from the molar mass of the structure shown. One block for each compound: values may come before it.
What was measured:
[1] = test system: cocktail mAbs of 10E6 and 9C9; assay: Nonspecific binding analysis with cocktail mAbs; conditions: λex/λem 480/535 nm, working concentration
Procedure: The detection system of DWFPIA consists of two distinct fluorescence signals; moreover, the interference between the short-wavelength fluorescein (EDF/BDF/HDF) and the long-wavelength fluorescein (DSCA/DSCH/AF647) could be ignored, according to our previous studies. Furthermore, the nonspecific binding was analyzed by comparing the FP changes of each tracer (or the tracer cocktail) upon the addition of the free, specific, non-specific, and cocktail mAbs at working concentrations. […] At 620 nm/688 nm, the binding of the tracer HaptenA-DSCA and its corresponding antibody mAb 9C9 was not affected by the presence of non-specific mAb 10E6, as shown in Figure 3A.

[2] = test system: mAb 10E6; assay: FPIA tracer-antibody binding, antibody dilution and SMZ competition with mAb 10E6; conditions: λex/λem 480/535 nm, working concentration
Procedure: For single format FPIA, 70 μL/well of a standard analyte solution, 70 μL/well of tracer, and 70 μL/well mAb were added to the 96-well low-adsorption microplate. After incubation for 2 min in the dark, FP values were measured at λex 480 nm and λem 535 nm for the SAs tracers (SADMPM-EDF, SADMPM-BDF, and SADMPM-HDF) or at λex 620 nm and λem 688 nm for the ASGs tracers (HaptenA-DSCA, HaptenA-DSCH, and HaptenA-AF647). For DWFPIA detection, 70 μL/well standard cocktail solutions were mixed with 70 μL/well of tracer cocktail solutions in the working dilution and 70 μL/well of mAb cocktail solutions in the working dilution. […]
In DWFPIA, we mainly focused on three analytical parameters to select the optimum antibody–tracer pairs, including the half-maximal inhibitory concentration (IC50), the detection window (δmP = mPmax − mPmin), and the titer of the mAbs. […] The IC50 of DWFPIA based on the antibody–tracer pairs was assessed according to standard curves, as described in Section 2.3.3. δmP was the difference between the observed maximum FP value of the tracer bound to a saturating amount of antibody (mPmax) and the observed minimum FP value of the free tracer (mPmin). […] In addition, the binding abilities of the tracers and mAbs were assessed. […] According to the antibody dilution curve, the titer of the mAbs utilized for each tracer that satisfied the δmP criterion was calculated. […]

[3] = test system: mAb 10E6; assay: DWFPIA for SAs (tracer SADMPM-HDF, λex 480 nm/λem 535 nm); assay type: binding; conditions: for IC50: 480 nm/535 nm
Procedure: (§1) For single format FPIA, 70 μL/well of a standard analyte solution, 70 μL/well of tracer, and 70 μL/well mAb were added to the 96-well low-adsorption microplate. After incubation for 2 min in the dark, FP values were measured at λex 480 nm and λem 535 nm for the SAs tracers (SADMPM-EDF, SADMPM-BDF, and SADMPM-HDF) or at λex 620 nm and λem 688 nm for the ASGs tracers (HaptenA-DSCA, HaptenA-DSCH, and HaptenA-AF647). For DWFPIA detection, 70 μL/well standard cocktail solutions were mixed with 70 μL/well of tracer cocktail solutions in the working dilution and 70 μL/well of mAb cocktail solutions in the working dilution. After incubation for 2 min in the dark, the corresponding signals of the tracers were collected simultaneously.
(§2) The procedure to develop the standard curves of DWFPIA for the simultaneous detection of SMZ and TMP was follows: the standard cocktail solutions were prepared by mixing an equal quantity of the standard of SMZ and TMP. Subsequently, the optimum two tracers for each mAbs were added with equal volumes, and then mixed with the two mAbs against SMZ and TMP. The other steps followed the above protocol for FPIA. […] Y = (A − D)/[1 + (X/C) ^B] + D(1) where Y represents the FP value for the corresponding different concentrations of the standard (analyte); A and D represent the asymptotic maximum and minimum of the FP values, respectively; and B is the slope of the curve at the inflection point. C is the IC50 value that defines the standard concentration of SMZ or TMP (analyte) at 50% tracer binding, and X is SMZ/TMP in various concentrations. Furthermore, IC20–IC80 was calculated as the detectable range of the DWFPIA. According to the following equation, the cross reactivity (CR) of the DWFPIA was acquired as follows:CR= (IC50 of SMZ or TMP)/(IC50 of analyte compound) × 100%(2)
(§3) To obtain a sensitive FPIA, the effects of some physicochemical conditions on DWFPIA were evaluated by comparing the δmP/IC50 ratios under various conditions, including pH and organic solvents. Based on the optimal antibody–tracer pairs, pH values of 6.0, 7.0, 8.0, and 9.0 were tested and the other parameters of the assay remain unchanged. To clarify the effects of organic solvents on the development of DWFPIA, various concentrations of methanol and acetonitrile were tested, that is, 0%, 2.5%, 5%, 10%, 20%, and 30% (v/v) for methanol and 0%, 2.5%, 5%, 10%, and 20% (v/v) for acetonitrile. SMZ and TMP were used as the reference analyte in DWFPIA optimization to construct standard curves, seperately.

[4] = test system: mAb 9C9; assay: DWFPIA for ASGs (tracer HaptenA-DSCA, λex 620 nm/λem 688 nm); assay type: binding
Procedure: as §1, §2, §3

[5] = final concentration of 10% acetonitrile

Fluorescence Polarization, tracer and cocktail mAbs [1]: 178.8 mP
Fluorescence Polarization, tracer and mAb 10E6 [2]: 178.6 mP
SMILES: Cc1nc(NS(=O)(=O)c2ccc(N)cc2)nc(C)c1CCCCC(=O)NCCCCCCNC(=S)Nc1ccc2c(c1)C(=O)OC21c2ccc(O)cc2Oc2cc(O)ccc21 [SADMPM-HDF]

IC50 ([3]; analyte in mixed format (standard cocktail)): 4.67 ng/mL (≈ 16.8 nM)
IC50 ([3]; analyte in single format, tracer and mAb cocktail): 4.55 ng/mL (≈ 16.3 nM)
SMILES: Cc1cc(C)nc(NS(=O)(=O)c2ccc(N)cc2)n1 [SMZ, Sulfamethazine]
δmP ([3]; 10% final acetonitrile concentration): < 80 mP
CRs ([3]; cross reactivity = IC50 of SMZ / IC50 of analyte × 100%): 100%

IC50 ([4]; analyte in mixed format (standard cocktail), 620 nm/688 nm): 1.12 ng/mL (≈ 3.86 nM)
IC50 ([4]; analyte in single format, tracer and mAb cocktail, 620 nm/688 nm): 1.06 ng/mL (≈ 3.65 nM)
IC50 [4, 5]: 1.7 ng/mL (≈ 5.86 nM)
IC50 ([4]; without acetonitrile (start of the change)): 1.1 ng/mL (≈ 3.79 nM)
SMILES: COc1cc(Cc2cnc(N)nc2N)cc(OC)c1OC [TMP, Trimethoprim]
CRs ([4]; cross reactivity = IC50 of TMP / IC50 of analyte × 100%): 100%
δmP [4, 5]: greater than 80 mP
